Measured values as given in US20220265629A1, “TREATMENT OF SYSTOLIC DYSFUNCTION AND HEART FAILURE WITH REDUCED EJECTION FRACTION WITH THE COMPOUND (R)-4-(1-((3-(DIFLUOROMETHYL)-1-METHYL-1H-PYRAZOL-4-YL)SULFONYL)-1-FLUOROETHYL)-N-(ISOXAZOL-3-YL)PIPERIDINE-1-CARBOXAMIDE” (MyoKardia, Inc., priority 2019, published 2022).
Marks after values point to notes of the source that are not given here.

Legend:
[1] = system: healthy subjects; assay: Single ascending oral dose study in healthy volunteers: safety (AEs, ECG, hs-troponin I); type: in vivo, human
Method: PK and PD data were collected as described herein. […] Changes from Baseline at each postbaseline timepoint were assessed.
A 12-lead electrocardiogram (ECG) was obtained after the subjects had rested in a supine position for at least 10 minutes. […] Digital 12-lead ECG evaluations was performed after 10 minutes of rest at Screening, preclose on Day 1 (within 2 hours of dosing), and at various predetermined time points. Each time an ECG was completed, a 10-second paper ECG rhythm strip would also be obtained and maintained in the subject's source documentation.
The ECGs were transmitted to the core ECG laboratory who read the recordings in a blinded manner. An automated methodology was utilized with manual over-reading by a cardiologist. The following intervals were measured: RR, PR, QRS, and QT. Heart rate (HR) was calculated as 60/(RR×1000) (with RR expressed in msec) and rounded to the nearest integer.
Corrected QT interval (QTc) was calculated using the manually over-read QT values per the standard procedures of the central ECG laboratory. Each individual ECG QT value was corrected for HR. The measured QT data were corrected for HR using the Fridericia correction QTcF and the Bazzett method (QTcB) as per the following formulae/method (with QT, RR and QTc expressed in msec): […]
Any abnormal findings judged by the investigator to be clinically important were recorded as adverse events (AEs). AEs were mapped to system organ classes (SOCs) and preferred terms (PTs) using the Medical Dictionary for Regulatory Activities (MedDRA). AEs were monitored during the study and the data analyzed with respect to overall incidence, severity, and potential relationship to study medication. The blinded AEs were presented to the SRC for review after each cohort to aid in their decision on the dose of the subsequent cohort or if the study should be terminated. […] No ECG changes or symptoms were noted.
For the final analysis, the AEs were grouped by treatment group with all of the subjects who received placebo pooled as 1 group. AEs with onset on or after the first dose of study medication, or with an onset before the first dose of study medication that increased in severity on or after the first dose of study medication. Treatment-emergent AEs (defined as AEs starting […]) were summarized for the Safety Analysis Population by MedDRA SOC and PT, and by severity and relationship to treatment. Severe and life-threatening AEs, SAEs, and AEs leading to study withdrawal, if any, were presented in data listings.
Serum samples were drawn for hs-troponin I. Analyses were performed using the Abbott Architect STAT High Sensitivity Troponin I assay.

[2] = system: patients with stable HFrEF; assay: HFrEF study Part 2 (MAD Cohorts A-D): TTE pharmacodynamics by plasma concentration group; type: in vivo, human; conditions: for A-wave duration, mean change from baseline (placebo-corrected) / A-wave peak, mean change from baseline (placebo-corrected) / DBP (supine), mean change from baseline (placebo-corrected) / E-wave peak, mean change from baseline (placebo-corrected) / E/A ratio, mean change from baseline (placebo-corrected) / E/e′ (lateral), mean change from baseline (placebo-corrected) / Heart rate (supine), mean change from baseline (placebo-corrected) / IVRT, mean change from baseline (placebo-corrected) / LVEDD, mean change from baseline (placebo-corrected) / LVEDVi, mean change from baseline (placebo-corrected) / LVEF, mean change from baseline (placebo-corrected) / LVESD, mean change from baseline (placebo-corrected) / LVESVi, mean change from baseline (placebo-corrected) / LVFS, mean change from baseline (placebo-corrected) / LVGCS, mean change from baseline (placebo-corrected) / LVGLS, mean change from baseline (placebo-corrected) / LVSV, mean change from baseline (placebo-corrected) / SBP (supine), mean change from baseline (placebo-corrected) / SET, mean change from baseline (placebo-corrected) / Tei index, mean change from baseline (placebo-corrected) / e′ (lateral), mean change from baseline (placebo-corrected) / s′ (lateral), mean change from baseline (placebo-corrected): LS mean difference vs placebo
Method: PD assessment was done by transthoracic echocardiography as described in Example 1 above. TTE evaluations of LVSV (derived from LVOT-VTI), LVEF, LVFS, SET, and other parameters were PD assessments at predetermined time points. The patients were on bed rest for 10 minutes before the TTEs were obtained. In Part 2 (MAD), TTEs were usually obtained before the morning close and/or at 7 hours postclose (i.e., close to the anticipated peak effect based on the PK profile from the healthy volunteer studies).
The pharmacodynamic effects of Compound I on echocardiographic markers of cardiac structure and function were analyzed by Compound I plasma concentration groups: <2000 ng/mL (lower concentration group), 2000-3500 ng/mL (medium concentration group) and ≥3500 ng/mL (higher concentration group) (Table 16) and with PK-PD scatterplots (FIGS. 9A-9C). The medium concentration group corresponds to steady-state plasma concentrations achieved with 50 mg BID (Table 17). A total of 526 echocardiograms were performed from which the PK-PD analysis was derived.

[3] = MAD cohorts, plasma concentration group 2000-<3500 ng/mL (n = 26)
[4] = MAD cohorts, plasma concentration group <2000 ng/mL (n = 30)
[5] = MAD cohorts, plasma concentration group ≥3500 ng/mL (n = 13)
[6] = higher concentration group (≥3500 ng/mL)
[7] = medium concentration group (2000-3500 ng/mL)

Cn1cc(S(=O)(=O)[C@@](C)(F)C2CCN(C(=O)Nc3ccon3)CC2)c(C(F)F)n1 [Compound I, (R)-4-(1-((3-(difluoromethyl)-1-methyl-1H-pyrazol-4-yl)sulfonyl)-1-fluoroethyl)-N-(isoxazol-3-yl)piperidine-1-carboxamide]
AEs considered related to treatment ([1]; 50 mg dose group (50.0%)): 3 subjects
serious AE ([1]; 100 mg dose group): short duration of complete AV block
AEs considered related to treatment ([1]; 350 mg dose group (50.0%)): 3 subjects
hs-troponin I concentration in one subject ([1]; 525 mg group, 6 hours postdose, upper limit of normal 15 ng/L): 16 ng/L
ECG or ECG intervals including PR interval ([1]; 3-525 mg): no significant changes
vital sign or safety laboratory parameters ([1]; 3-525 mg): no clinically significant changes
tolerability ([1]; single doses up to 525 mg): well-tolerated
hs-troponin I, mild increase in one subject ([1]; upper range of normal 15 ng/L): 16 ng/L
LVEF ([2]; MAD cohorts): non-significant increase
A-wave duration, mean change from baseline (placebo-corrected) [2, 3]: 5.9 ms
A-wave peak, mean change from baseline (placebo-corrected) [2, 3]: 6.1** cm/s
DBP (supine), mean change from baseline (placebo-corrected) [2, 3]: −0.2 mmHg
E-wave peak, mean change from baseline (placebo-corrected) [2, 3]: -2.1 cm/s
E/A ratio, mean change from baseline (placebo-corrected) [2, 3]: −0.1**
E/e′ (lateral), mean change from baseline (placebo-corrected) [2, 3]: −0.7
Heart rate (supine), mean change from baseline (placebo-corrected) [2, 3]: −2.0 bpm
IVRT, mean change from baseline (placebo-corrected) [2, 3]: 10.5 ms
LVEDD, mean change from baseline (placebo-corrected) [2, 3]: −0.9** mm
LVEDVi, mean change from baseline (placebo-corrected) [2, 3]: −1.1 mL/m^2
LVEF, mean change from baseline (placebo-corrected) [2, 3]: 1.1%
LVESD, mean change from baseline (placebo-corrected) [2, 3]: −1.3** mm
LVESVi, mean change from baseline (placebo-corrected) [2, 3]: −1.3 mL/m^2
LVFS, mean change from baseline (placebo-corrected) [2, 3]: 0.8%
LVGCS, mean change from baseline (placebo-corrected) [2, 3]: −2.1** %
LVGLS, mean change from baseline (placebo-corrected) [2, 3]: −0.9* %
LVSV, mean change from baseline (placebo-corrected) [2, 3]: 7.8** mL
SBP (supine), mean change from baseline (placebo-corrected) [2, 3]: −0.8 mmHg
SET, mean change from baseline (placebo-corrected) [2, 3]: 36** ms
Tei index, mean change from baseline (placebo-corrected) [2, 3]: −0.08**
e′ (lateral), mean change from baseline (placebo-corrected) [2, 3]: 0.1
s′ (lateral), mean change from baseline (placebo-corrected) [2, 3]: 0.6**
A-wave duration, mean change from baseline (placebo-corrected) [2, 4]: 6.0 ms
A-wave peak, mean change from baseline (placebo-corrected) [2, 4]: 4.1* cm/s
DBP (supine), mean change from baseline (placebo-corrected) [2, 4]: −0.9 mmHg
E-wave peak, mean change from baseline (placebo-corrected) [2, 4]: -3.8 cm/s
E/A ratio, mean change from baseline (placebo-corrected) [2, 4]: −0.1**
E/e′ (lateral), mean change from baseline (placebo-corrected) [2, 4]: −0.8
Heart rate (supine), mean change from baseline (placebo-corrected) [2, 4]: 0.0 bpm
IVRT, mean change from baseline (placebo-corrected) [2, 4]: 2.7 ms
LVEDD, mean change from baseline (placebo-corrected) [2, 4]: −0.5 mm
LVEDVi, mean change from baseline (placebo-corrected) [2, 4]: −1.1 mL/m^2
LVEF, mean change from baseline (placebo-corrected) [2, 4]: −0.3%
LVESD, mean change from baseline (placebo-corrected) [2, 4]: −0.8 mm
LVESVi, mean change from baseline (placebo-corrected) [2, 4]: −0.9 mL/m^2
LVFS, mean change from baseline (placebo-corrected) [2, 4]: 0.5%
LVGCS, mean change from baseline (placebo-corrected) [2, 4]: −0.4%
LVGLS, mean change from baseline (placebo-corrected) [2, 4]: −0.3%
LVSV, mean change from baseline (placebo-corrected) [2, 4]: 3.1 mL
SBP (supine), mean change from baseline (placebo-corrected) [2, 4]: −1.5 mmHg
SET, mean change from baseline (placebo-corrected) [2, 4]: 15** ms
Tei index, mean change from baseline (placebo-corrected) [2, 4]: −0.05
e′ (lateral), mean change from baseline (placebo-corrected) [2, 4]: −0.2
s′ (lateral), mean change from baseline (placebo-corrected) [2, 4]: 0.2
A-wave duration, mean change from baseline (placebo-corrected) [2, 5]: 11.9** msec
A-wave peak, mean change from baseline (placebo-corrected) [2, 5]: 4.3 cm/s
DBP (supine), mean change from baseline (placebo-corrected) [2, 5]: −1.4 mmHg
E-wave peak, mean change from baseline (placebo-corrected) [2, 5]: −10** cm/s
E/A ratio, mean change from baseline (placebo-corrected) [2, 5]: −0.2**
E/e′ (lateral), mean change from baseline (placebo-corrected) [2, 5]: 0.3
Heart rate (supine), mean change from baseline (placebo-corrected) [2, 5]: −1.1 bpm
IVRT, mean change from baseline (placebo-corrected) [2, 5]: 27.8** msec
LVEDD, mean change from baseline (placebo-corrected) [2, 5]: −1.8** mm
LVEDVi, mean change from baseline (placebo-corrected) [2, 5]: −5.2* mL/m^2
LVEF, mean change from baseline (placebo-corrected) [2, 5]: 2.3%
LVESD, mean change from baseline (placebo-corrected) [2, 5]: −1.8** mm
LVESVi, mean change from baseline (placebo-corrected) [2, 5]: −4.6** mL/m^2
LVFS, mean change from baseline (placebo-corrected) [2, 5]: 0.5%
LVGCS, mean change from baseline (placebo-corrected) [2, 5]: −3.3** %
LVGLS, mean change from baseline (placebo-corrected) [2, 5]: −1.0* %
LVSV, mean change from baseline (placebo-corrected) [2, 5]: 5.7* mL
SBP (supine), mean change from baseline (placebo-corrected) [2, 5]: −5.2* mmHg
SET, mean change from baseline (placebo-corrected) [2, 5]: 48** ms
Tei index, mean change from baseline (placebo-corrected) [2, 5]: −0.02
e′ (lateral), mean change from baseline (placebo-corrected) [2, 5]: −1.0**
s′ (lateral), mean change from baseline (placebo-corrected) [2, 5]: 0.3
SET increase ([2]; SAD and MAD cohorts): < 50 ms
increase in SV (forward flow) ([2]; SAD and MAD cohorts, exposure-related): 8 to 9 mL
Myocardial performance (Tei index) improved ([2]; SAD and MAD cohorts, concentrations ≥2000 ng/mL): approximately 10%
LV longitudinal as well as circumferential strain, mean placebo-corrected decrease [2, 6]: −3.3%
LVESD, mean placebo-corrected decrease [2, 6]: −1.8 mm
SET, mean placebo-corrected increase [2, 6]: 48 ms
peak E wave, decrease [2, 6]: -10 cm/s
stroke volume, mean placebo-corrected increase [2, 6]: 5.7 mL
LV longitudinal as well as circumferential strain, mean placebo-corrected decrease [2, 7]: −2.1%
LVESD, mean placebo-corrected decrease [2, 7]: −1.3 mm
SET, mean placebo-corrected increase [2, 7]: 36 ms
stroke volume, mean placebo-corrected increase [2, 7]: 7.8 mL
filling pressures (E/e′) ([2]; medium or higher concentration group): No change
